Results as given in ChEMBL document CHEMBL5390234 (Bioorg Med Chem Lett, 2023).
Values after ≈ are worked out from the molar mass of the structure shown.

Columns and labels:
[1] = Lipophilicity, logD of compound at pH 7.4; type: physicochemical; settings: buffer
[2] = AUC (0 to t) in mouse plasma at 1 mg/kg, po; type: ADME, organism-based; design: dose 1 mg/kg, route po
[3] = Apparent permeability of compound across apical to basolateral in human Caco-2 cells at 10 uM; type: ADME, cell-based
[4] = AUC (0 to t) in mouse plasma at 30 mg/kg, po; type: ADME, organism-based; design: dose 30 mg/kg, route po
[5] = Oral bioavailability in mouse at 30 mg/kg; type: ADME, organism-based; settings: in vivo
[6] = Solubility of the compound in aqueous phosphate buffer at pH 7.4 incubated for 24 hrs; type: physicochemical
[7] = Oral bioavailability in mouse at 1 mg/kg or 0.5 mg/kg, iv; type: ADME, organism-based; settings: in vivo
[8] = Volume of distribution at steady state in mouse; type: ADME, organism-based; settings: in vivo, read-out: Vdss

Compound | logD [1] | Papp A→B at 10 µM [3] [×10⁻⁶ cm/s] | Vd [8] [L/kg] | other results
CCNc1nc(N)nc2nc(-c3ccc[nH]c3=O)ccc12 | 0.8 | – | – | –
CCNc1nc(N)nc2cc(-n3cccn3)cnc12 | 2.1 | – | – | –
CCNc1cc(N)nc2cc(-n3cccn3)ccc12 | 1.5 | – | – | –
Nc1cc(NCCn2cccn2)c2ccccc2n1 | 0.5 | – | – | –
Nc1nc(NCCn2cccn2)c2ccc(-c3cc[nH]n3)nc2n1 | 1.4 | – | – | –
c1cnn(CCNc2ccnc3cc(-n4cccn4)ccc23)c1 | 1.8 | – | – | –
CCNc1nc(N)nc2nc(-n3cccn3)ccc12 | 2 | – | – | –
Nc1cc(NCCn2cccn2)c2ccc(-n3cccn3)cc2n1 | 1.7 | 2.3 | 3.1 | bioavailability [7]: 1.1%

More lines, main results first:

logD [1] | Papp A→B at 10 µM [3] [×10⁻⁶ cm/s] | Vd [8] [L/kg] | Compound | other results
– | 4.2 | 7.8 | CC1(Nc2nc(N)nc3nc(-c4cc[nH]n4)ccc23)CC1 | AUC(0-t) [2]: 0.2 µM·h; AUC(0-t) [4]: 7.5 µM·h; bioavailability [5]: 70%; solubility at 24 h [6]: 910 µM (≈ 256 µg/mL); bioavailability [7]: 56%
– | 9 | 4.7 | CC1(Nc2nc(N)nc3cc(-c4cc[nH]n4)ccc23)CC1 | solubility at 24 h [6]: > 1000 µM; bioavailability [7]: 25%
1.4 | – | – | CCNc1nc(N)nc2nc(-c3cc[nH]n3)ccc12 | –
1.8 | – | – | CCNc1nc(N)nc2cc(-c3cc[nH]n3)ccc12 | –
– | 3.7 | 13 | Nc1nc(NC2CC2)c2ccc(-c3cc[nH]n3)nc2n1 | solubility at 24 h [6]: > 1000 µM; bioavailability [7]: 7.5%
1.8 | – | – | CCNc1nc(N)nc2cc(-n3cccn3)ccc12 | –
1.8 | 0.6 | 0.8 | CCN(Cc1nc2c(N)nc3cc(-c4cc[nH]n4)ccc3c2[nH]1)C(C)=O [BMS-986299] | –
